Test [1] is described as follows: Binding affinity to 5'-WGWWCW-3' DNA (unknown origin).
For test [2], the species on record is Homo sapiens. Put plainly: Binding affinity to DNA HRE binding site (unknown origin) assessed as inhibition of HIF-1alpha/ARNT heterodimer binding.
Test [3] in a line: Binding affinity to DNA HRE binding site (unknown origin) by DNase 1 footprint titrations method.
Test [4] relates to Human papillomavirus type 16. Put plainly: Antiviral activity against HPV16 assessed as inhibition of viral replication. It counts as functional, organism-based. The conditions noted are these: Human papillomavirus 16.
A short description of test [5]: Binding affinity to rat TGF-beta1 promoter AP1 binding site by gel mobility shift and SPR method. A general note: SPR reads the build-up and loss of mass on a sensor chip optically.
The nature of test [6]: Binding affinity to 5'-TGTTAT-3' DNA (unknown origin).

We go through seven compounds from ChEMBL document CHEMBL3232868, “Programmable DNA-binding small molecules” (Bioorg Med Chem, 2013).

One may read the IC50 as the midpoint of a concentration-inhibition curve. Turning to `CN(CCCNC(=O)c1cccc(C(=O)O)c1)CCCNC(=O)c1cc(NC(=O)c2cc(NC(=O)c3cc(NC(=O)c4nc(NC(=O)C[C@@H](CNC(=O)c5cc(NC(=O)c6cc(NC(=O)c7cc(NC(=O)c8nccn8C)cn7C)cn6C)cn5C)NC(=O)c5ccccn5)cn4C)cn3C)cn2C)cn1C`, the IC50 in test [1] was 21 nM.
`CN(CCCNC(=O)c1cccc(C(=O)O)c1)CCCNC(=O)c1cc(NC(=O)c2cc(NC(=O)c3cc(NC(=O)c4nc(NC(=O)C[C@@H](CNC(=O)c5cc(NC(=O)c6cc(NC(=O)c7cc(NC(=O)c8nccn8C)cn7C)cn6C)cn5C)NC(=O)c5ccc(-c6ccccc6)cc5)cn4C)cn3C)cn2C)cn1C`: in test [1], the concentration for half-maximal inhibition (IC50) came to 13 nM.
For `CN(CCCNC(=O)c1cc(NC(=O)c2cc(NC(=O)c3nc(NC(=O)c4cc(NC(=O)[C@H](N)CCNC(=O)c5nc(NC(=O)c6cc(NC(=O)c7cc(NC(=O)c8sccc8Cl)cn7C)cn6C)cn5C)cn4C)cn3C)cn2C)cn1C)CCCNC(=S)Nc1ccc(-c2c3ccc(=O)cc-3oc3cc(O)ccc23)c(C(=O)O)c1`, the INH in test [2] amounted to 0.25 nM. Besides, the Ka in test [3] is 6.3 ×10⁹ /M.
For the compound `Cn1cc(NC(=O)c2cc(NC(=O)c3cc(NC=O)cn3C)cn2C)cc1C(=O)NCCC(=N)N` [STALLIMYCIN], the IC50 in test [4] was 33000 nM.
The compound `CN(CCCNC(=O)c1cccc(C(=O)O)c1)CCCNC(=O)c1cc(NC(=O)c2cc(NC(=O)c3cc(NC(=O)c4nc(NC(=O)C[C@@H](CNC(=O)c5cc(NC(=O)c6cc(NC(=O)c7cc(NC(=O)c8nccn8C)cn7C)cn6C)cn5C)NC(=O)c5ccc([N+](=O)[O-])cc5)cn4C)cn3C)cn2C)cn1C` came in with an IC50 in test [1] of 10 nM.
Broadly, the Kd is the equilibrium constant for the complex coming apart. Take `CC(=O)Nc1cc(C(=O)Nc2cc(C(=O)NCCC(=O)Nc3cc(C(=O)Nc4cn(C)c(C(=O)Nc5cc(C(=O)NCCCC(=O)Nc6cc(C(=O)Nc7cc(C(=O)Nc8cc(C(=O)NCCC(=O)Nc9cn(C)c(C(=O)Nc%10cc(C(=O)NCCC(=O)NCCCN(C)C)n(C)c%10)n9)n(C)c8)n(C)c7)n(C)c6)n(C)c5)n4)n(C)c3)n(C)c2)n(C)c1`: in test [5], the Kd was determined as 1.43 nM.
For `CN(CCCN)CCCNC(=O)CCNC(=O)c1cc(NC(=O)c2cc(NC(=O)c3cc(NC(=O)c4cc(NC(=O)CCCNC(=O)c5cc(NC(=O)c6cc(NC(=O)c7cc(NC(=O)c8nccn8C)cn7C)cn6C)cn5C)cn4C)cn3C)cn2C)cn1C`, the affinity in test [6], expressed as Kd, was 1.1 nM.
